How the values were obtained:
[1] = Titration of PLS in the presence of BCA2-Cu(I) complex; type: binding; details: PLS serially diluted from 496 µM to 214 nM; 125 µM BCA, 50 µM CuCl, 50 mM HEPES, 150 mM NaCl, 20 mM ascorbate, pH 7.6; A562 nm, n = 3
Procedure: Figure S9. Titration of PLS in the presence of BCA2-Cu(I)-Complex.
A solution of synthetic PLS in 50 µl buffer (50 mM HEPES, 150 mM NaCl, pH 7.6) was serially diluted from 496 µM to 214 nM. After the addition of 50 µl BCA2-Cu(I) buffer (50 mM HEPES, 150 mM NaCl, 20 mM ascorbate, 125 µM BCA, 50 µM CuCl, pH 7.6) the absorbance at 562 nm was measured. Discoloration of the pink BCA2-Cu(I) complex visible in the decrease of absorption at higher peptide concentration indicates […]
chelator BCA. Bars represent means ± SD, n = 3.
(1 picture or pasted object on this page, not shown here)

ETR1:HA = test: Co-IP competition: synthetic PLS vs PLS:GFP binding to ETR1:HA in N. benthamiana leaves; set-up: species or system Arabidopsis; details: 25 nM synthetic PLS(FL), 0.5 μM CuSO4, 50 μM MG-132, 30 min before tissue harvest
Source text: To investigate the interaction between the PLS peptide and the ethylene receptor ETR1, two DNA constructs were created by Gateway cloning. The […] PLS gene (without the stop codon) was inserted into the pEarlyGate103 (pEG103) destination vector, which contained the pro35S promoter and a C-terminal GFP tag, to produce a vector containing pro35S::PLS:GFP DNA. The ETR1 cDNA was inserted into the pEarlyGate301 (pEG301) vector to create a pro35S::ETR1:HA construct to express an ETR1 protein with a C-terminal HA tag. pro35S::GFP was used as a control. The primers used to clone ETR1 and PLS are found in supplemental Table 9.
Constructs were transiently expressed in N. benthamiana (tobacco) leaves as described previously ([Voinnet et al., 2003]). Experiments were replicated up to five times. Competent Agrobacterium tumefaciens GV3101 cells were transformed with the desired plasmid containing the gene of interest and injected with a syringe. The plants were approximately 7–10 weeks old; the chosen leaves were healthy and 3–6 cm in length, and 3 to 4 leaves were infiltrated with each construct. […]
SDS–PAGE was used to separate protein fragments. The complexed proteins from the pulldown assay were analyzed on 10%–12% acrylamide gels. […] The horseradish peroxidase conjugated to the secondary antibody was detected using X-ray film. […]

ETR1^306-738 = target: T1, ETR1^306-738 (Arabidopsis thaliana, UniProt P49333); test: Microscale thermophoresis, PLS binding to ETR1 lacking the transmembrane domain; details: MST, as full-length; ETR1^306-738 lacking N-terminal transmembrane domain; listed as PLS
T1 construct: made in house
T1 sequence (P49333 306-738): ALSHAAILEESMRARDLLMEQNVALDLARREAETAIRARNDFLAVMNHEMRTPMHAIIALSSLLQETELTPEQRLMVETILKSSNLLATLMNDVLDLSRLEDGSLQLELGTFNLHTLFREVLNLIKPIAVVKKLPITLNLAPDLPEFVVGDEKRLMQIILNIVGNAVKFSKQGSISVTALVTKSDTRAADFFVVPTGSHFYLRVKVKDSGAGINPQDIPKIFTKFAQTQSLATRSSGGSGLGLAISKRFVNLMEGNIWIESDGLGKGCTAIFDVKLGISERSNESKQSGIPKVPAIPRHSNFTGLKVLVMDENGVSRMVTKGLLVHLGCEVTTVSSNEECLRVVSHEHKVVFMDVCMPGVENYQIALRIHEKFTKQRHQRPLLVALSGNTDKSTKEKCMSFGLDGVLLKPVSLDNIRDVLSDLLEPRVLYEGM
Procedure: Fluorescently labeled ETR1 truncation mutants ([Milić et al., 2018]) were added to a dilution series of synthetic PLS in 50 mM HEPES, 150 mM NaCl, and 0.015% (w/v) FosCholine 16 (pH 7.6) or 50 mM Tris, 300 mM NaCl, and 0.015% (w/v) FosCholine 16 (pH 7.6). Dissociation constants were calculated using GraphPad Prism 5.
Full-length ETR1 and its truncation mutants were purified and labeled as described previously ([Milić et al., 2018]). Synthetic PLS (94 μM) was diluted serially in 50 mM Tris and 300 mM NaCl (pH 7.6). Fluorescently labeled receptor was added at a final concentration of 50 nM. Thermophoretic behavior was measured in premium capillaries at 50% LED and 50% microscale thermophoresis power. In case of a binding event, data were fitted using GraphPad Prism 5.

[2] = Solubility during Cu(I) titration; type: physicochemical; details: strictly anaerobic conditions
Procedure: All Cu(I) titration experiments were carried out in an anaerobic chamber (Belle Technology) using metal-free CHELEX-treated, degassed buffers. For titration experiments with Cu(I), aqueous CuSO4 stock was quantified in advance by ICP–MS and diluted to working concentrations. The reductant NH2OH was included at a final concentration of 1 mM to maintain Cu(I) in its reduced state. Proteins were diluted in buffer to the final concentration specified in each titration in air-tight quartz cuvettes (Helma), and after addition of probe to the concentration specified, titrated with CuSO4. After each addition, solutions were thoroughly mixed and absorbance spectra recorded using a Lambda 35 UV/Vis spectrophotometer (PerkinElmer). Titration isotherm data were fitted using simulated affinity curves with DynaFit ([Kuzmič, 2009]).

PLS(FL): full-length 36-amino-acid PLS peptide from Arabidopsis (MKPRLCFNFRRRSISPCYISISYLLVAKLFKLFKIH)
competition for copper with BCA [1]: able to effectively compete and remove copper
reduction in PLS:GFP binding to ETR1:HA (ETR1:HA): ~80%
binding (dissociation constant) (ETR1^306-738): no binding was detected
solubility [2]: problems with PLS solubility
